From US20240101531A1, “PYRIDINAMINE DERIVATIVES AND THEIR USE AS POTASSIUM CHANNEL MODULATORS” (Xenon Pharmaceuticals Inc., priority 2022, published 2024) come the findings set out here.

Where a name gives a salt, the structure may show the parent alone.

This assay has as its target human KV7.2/KV7.3 (Homo sapiens (Human), UniProt O43525+O43526). The experiment in a line: Potassium flux assay (IPG-2 AM dye). Type of assay: cell-based. As to conditions: TREX HEK 293 or HEK 293 cells expressing human KV7.2/KV7.3; arithmetic mean values. In short, it runs like this:
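HEK 293 or TREX HEK 293 cells stably expressing human KV7.2/KV7.3 (tetracycline-induced where needed), loaded with IPG-2 AM, then compound for 20 min at room temperature. Flux triggered by K challenge buffer (10 mM KCl, pH 7.4), read at 530/558 nm; EC50 from 16-point 2-fold series from 30 μM, normalised to DMSO and reference modulator.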

The term EC50 denotes the concentration needed to bring the measured effect to its halfway point. With `O=S1(=O)CC[C@@H](Oc2ccc3c(Nc4ccc(Cl)nc4)nccc3c2)C1` [Example 261, (R)-3-((1-((6-chloropyridin-3-yl)amino)isoquinolin-6-yl)oxy)tetrahydrothiophene 1,1-dioxide], the EC50 was in the range of 1 to 10 µM.
The value for `CC1(CCOc2ccc3c(Nc4ccc(Cl)nc4)nccc3c2)COC1` [Example 98, N-(6-chloropyridin-3-yl)-6-(2-(3-methyloxetan-3-yl)ethoxy)isoquinolin-1-amine] was 1 to 10 µM; that for `Cc1ncc(Nc2nccc3cc(OCC4(C#N)CC4)ccc23)cn1` [Example 88, 1-(((1-((2-methylpyrimidin-5-yl)amino)isoquinolin-6-yl)oxy)methyl)cyclopropane-1-carbonitrile] was 1 to 10 µM; that for `Clc1ccc(Nc2nccc3cc(OCCN4CC5(COC5)C4)ccc23)cn1` [Example 73, 6-(2-(2-oxa-6-azaspiro[3.3]heptan-6-yl)ethoxy)-N-(6-chloropyridin-3-yl)isoquinolin-1-amine] was no less than 30 µM.
Consider `COc1cnc(Nc2ccc(Cl)nc2)c2[nH]ccc12` [Example 15, N-(6-chloropyridin-3-yl)-4-methoxy-1H-pyrrolo[2,3-c]pyridin-7-amine formate], for which the EC50 was in the range of 1 to 10 µM.
As to `CNc1cc(Nc2nccc3cc(OCC4(C)COC4)ccc23)cnc1Cl` [Example 162, 2-chloro-N^3-methyl-N^5-(6-((3-methyloxetan-3-yl)methoxy)isoquinolin-1-yl)pyridine-3,5-diamine], the EC50 is less than 1 µM.
The figure for `FC1(COc2ccc3c(Nc4ccc(C(F)(F)F)nc4)nccc3c2)CC1` [Example 47, 6-((1-fluorocyclopropyl)methoxy)-N-(6-(trifluoromethyl)pyridin-3-yl)isoquinolin-1-amine] is no less than 30 µM; for `C[C@@]1(O)CCC[C@H](Oc2ccc3c(Nc4ccc(Cl)nc4)nccc3c2)C1` [Example 149, (1R,3S)-3-((1-((6-chloropyridin-3-yl)amino)isoquinolin-6-yl)oxy)-1-methylcyclohexan-1-ol] it is less than 1 µM; for `Cc1ncc(Nc2nccc3cc(OCc4cnoc4)ccc23)cn1` [Example 241, 6-(isoxazol-4-ylmethoxy)-N-(2-methylpyrimidin-5-yl)isoquinolin-1-amine] it is less than 1 µM.
The value for `Clc1ccc(Nc2nccc3cc(OCC4CC4)ccc23)cn1` [Example 2, N-(6-chloropyridin-3-yl)-6-(cyclopropylmethoxy)isoquinolin-1-amine] was less than 1 µM; that for `CC(=O)N1CCC[C@@H](Oc2ccc3c(Nc4ccc(Cl)nc4)nccc3c2)C1` [Example 123, (R)-1-(3-((1-((6-chloropyridin-3-yl)amino)isoquinolin-6-yl)oxy)piperidin-1-yl)ethan-1-one] was less than 1 µM.
The figure for `Clc1ccc(Nc2nccc3ccccc23)cn1` [Example 33, N-(6-chloropyridin-3-yl)isoquinolin-1-amine] is 1 to 10 µM; for `CC(Oc1ccc2c(Nc3ccc(Cl)nc3)nccc2c1)c1cn[nH]c1` (stereo not shown) [Example 335, 6-(1-(1H-pyrazol-4-yl)ethoxy)-N-(6-chloropyridin-3-yl)isoquinolin-1-amine] it is 1 to 10 µM.
Regarding `N#C[C@H]1C[C@](F)(COc2ccc3c(Nc4cnc(Cl)nc4)nccc3c2)C1` [Example 64, (1s,3s)-3-(((1-((2-chloropyrimidin-5-yl)amino)isoquinolin-6-yl)oxy)methyl)-3-fluorocyclobutane-1-carbonitrile], the EC50 was less than 1 µM.
The figure for `Clc1ccc(Nc2nccc3cccnc23)cn1` [Example 31, N-(6-chloropyridin-3-yl)-1,7-naphthyridin-8-amine formate] is 1 to 10 µM; for `FC(F)n1cc(COc2ccc3c(Nc4ccc(Cl)nc4)nccc3c2)cn1` [Example 279, N-(6-chloropyridin-3-yl)-6-((1-(difluoromethyl)-1H-pyrazol-4-yl)methoxy)isoquinolin-1-amine] it is less than 1 µM.
Take `Clc1ccc(Nc2nccc3cc(OCc4ccccn4)ccc23)cn1` [Example 5, N-(6-chloropyridin-3-yl)-6-(pyridin-2-ylmethoxy)isoquinolin-1-amine]: the 50% effective concentration (EC50) lay within 1 to 10 µM.
As to `FC1(COc2ccc3c(Nc4ccc(Cl)nc4)nccc3c2)CCC1` [Example 141, N-(6-chloropyridin-3-yl)-6-((1-fluorocyclobutyl)methoxy)isoquinolin-1-amine], the EC50 is 1 to 10 µM.
The figure for `Clc1ccc(Nc2nccc3cc(OCc4ccncn4)ccc23)cn1` [Example 51, N-(6-chloropyridin-3-yl)-6-(pyrimidin-4-ylmethoxy)isoquinolin-1-amine] is 1 to 10 µM.
The value for `Clc1ccc(Nc2nccc3cc(OCCc4ccccn4)ccc23)cn1` [Example 183, N-(6-chloropyridin-3-yl)-6-(2-(pyridin-2-yl)ethoxy)isoquinolin-1-amine] was 1 to 10 µM; that for `COc1ncc(Nc2nccc3cc(OCC4(F)CC4)ccc23)cn1` [Example 46, 6-((1-fluorocyclopropyl)methoxy)-N-(2-methoxypyrimidin-5-yl)isoquinolin-1-amine] was 1 to 10 µM; that for `Clc1ccc(Nc2nccc3cc(OCCCn4ccnc4)ccc23)cn1` [Example 185, 6-(3-(1H-imidazol-1-yl)propoxy)-N-(6-chloropyridin-3-yl)isoquinolin-1-amine] was 1 to 10 µM.
The figure for `Clc1ccc(Nc2nccc3cc(OCCc4ncccn4)ccc23)cn1` [Example 387, N-(6-chloropyridin-3-yl)-6-(2-(pyrimidin-2-yl)ethoxy)isoquinolin-1-amine] is 1 to 10 µM.
Take `Fc1cc2c(Nc3ccc(Cl)nc3)nccc2cc1OCC1(F)CC1` [Example 247, N-(6-chloropyridin-3-yl)-7-fluoro-6-((1-fluorocyclopropyl)methoxy)isoquinolin-1-amine]: the EC50 fell in the range of 10 to 30 µM.
The figure for `FC(F)(F)C1(COc2ccc3c(Nc4ccc(Cl)nc4)nccc3c2)CC1` [Example 231, N-(6-chloropyridin-3-yl)-6-((1-(trifluoromethyl)cyclopropyl)methoxy)isoquinolin-1-amine formate] is less than 1 µM.
As for `Cc1ncc(Nc2nccc3cc(OCc4cnn(C)c4)ccc23)cn1` [Example 205, 6-((1-methyl-1H-pyrazol-4-yl)methoxy)-N-(2-methylpyrimidin-5-yl)isoquinolin-1-amine], the EC50 is less than 1 µM.
For the compound `C[C@@H]1CN(CCOc2ccc3c(Nc4ccc(Cl)nc4)nccc3c2)C[C@H](C)O1` [Example 319, N-(6-chloropyridin-3-yl)-6-(2-((2S,6R)-2,6-dimethylmorpholino)ethoxy)isoquinolin-1-amine], the EC50 is 1 to 10 µM.
The figure for `CS(=O)(=O)CCCOc1ccc2c(Nc3ccc(Cl)nc3)nccc2c1` [Example 191, N-(6-chloropyridin-3-yl)-6-(3-(methylsulfonyl)propoxy)isoquinolin-1-amine] is 1 to 10 µM.
The figure for `FC1(F)CCCC(Oc2ccc3c(Nc4ccc(Cl)nc4)nccc3c2)C1` (stereo not shown) [Example 83, N-(6-chloropyridin-3-yl)-6-((3,3-difluorocyclohexyl)oxy)isoquinolin-1-amine] is 1 to 10 µM.
The value for `Clc1ccc(Nc2nccc3cc(OCC4CC5(CCO5)C4)ccc23)cn1` (stereo not shown) [Example 114, 6-((1-oxaspiro[3.3]heptan-6-yl)methoxy)-N-(6-chloropyridin-3-yl)isoquinolin-1-amine] was less than 1 µM; that for `O=c1cc[nH]n1CCOc1ccc2c(Nc3ccc(Cl)nc3)nccc2c1` [Example 75, 2-(2-((1-((6-chloropyridin-3-yl)amino)isoquinolin-6-yl)oxy)ethyl)-1,2-dihydro-3H-pyrazol-3-one] was 1 to 10 µM.
Take “N^8-(6-chloropyridin-3-yl)-N^3-((1-methyl-1H-pyrazol-4-yl)methyl)-1,7-naphthyridine-3,8-diamine [Example 251]”: the EC50 fell in the range of 1 to 10 µM.
The figure for `C[C@]1(O)CCC[C@@H](Oc2ccc3c(Nc4ccc(Cl)nc4)nccc3c2)C1` [Example 148, (1S,3R)-3-((1-((6-chloropyridin-3-yl)amino)isoquinolin-6-yl)oxy)-1-methylcyclohexan-1-ol] is less than 1 µM; for `Clc1ccc(Nc2nccc3cc(OCCN4CC5(CCC5)C4)ccc23)cn1` [Example 71, 6-(2-(2-azaspiro[3.3]heptan-2-yl)ethoxy)-N-(6-chloropyridin-3-yl)isoquinolin-1-amine] it is 10 to 30 µM; for `CS(=O)(=Nc1ccc2c(Nc3ccc(Cl)nc3)nccc2c1)C1CC1` (stereo in doubt) [Example 274, (S)-((1-((6-chloropyridin-3-yl)amino)isoquinolin-6-yl)imino)(cyclopropyl)(methyl)-λ^6-sulfanone] it is less than 1 µM.
The value for `Cc1ncc(Nc2nccc3cc(OCCOC4CC4)ccc23)cn1` [Example 38, 6-(2-cyclopropoxyethoxy)-N-(2-methylpyrimidin-5-yl)isoquinolin-1-amine] was 10 to 30 µM; that for `Cc1ncc(Nc2nccc3cc(OCC4CC4)cnc23)cn1` [Example 257, 3-(cyclopropylmethoxy)-N-(2-methylpyrimidin-5-yl)-1,7-naphthyridin-8-amine] was 1 to 10 µM.
The value for `Oc1ccc2c(Nc3cnc(Cl)nc3)nccc2c1` [Example 243, 1-((2-chloropyrimidin-5-yl)amino)isoquinolin-6-ol] was 10 to 30 µM; that for `Cc1ccc(Nc2nccc3cc(OCC4(F)CC4)ccc23)cn1` [Example 190, 6-((1-fluorocyclopropyl)methoxy)-N-(6-methylpyridin-3-yl)isoquinolin-1-amine] was 1 to 10 µM.
Take `COc1cc(Nc2nccc3cc(OCc4cnn(C)c4)ccc23)cnc1C` [Example 55, N-(5-methoxy-6-methylpyridin-3-yl)-6-((1-methyl-1H-pyrazol-4-yl)methoxy)isoquinolin-1-amine formate]: the EC50 was less than 1 µM.
